In assay [1] the test system is patients suffering from shortness of breath (SOB), acute coronary syndrome, acute heart failure (AHF), arrhythmia, asthma exacerbation, bronchitis, chest pain …. More on the design: species or system human. The settings on record: in vivo. The source says:
(§1) Suitable threshold levels for the stratification of subjects into different groups (categories) have to be determined for each particular combination of vasoactive hormone or fragments thereof or precursors or fragments thereof, medication and disease. This can e.g. be done by grouping a reference population of patients according to their level of vasoactive hormone into certain quantiles, e.g. tertiles, quartiles, quintiles or even according to suitable percentiles. […] A HR around 1 (e.g. +/−0.1) indicates no elevated risk but also no benefit from medication for the particular group of patients.
(§2) Survival rates, i.e. the proportion of patients surviving at a given time after entry into the studies, are plotted in the appended figures over time for different combinations of a particular vasoactive hormone with a particular medication. The patients have been stratified into quintiles according to their respective hormone levels. […] For some cases, two or more quintiles have been pooled were appropriate. Hazard ratios (HR) have been calculated for various combinations of particular vasoactive hormones with particular medications. HR have also been calculated for particular quintiles and/or pooled quintiles and compared to overall HR for each combination.

Assay [2] deals with patients with chronic ischemic left ventricular dysfunction. The settings on record: patients exhibiting a higher pre-treatment plasma NT-proBNP and adrenomedullin (ADM); cited from earlier work.
The test system of assay [3] is patients having suffered a myocardial infarction. Nature of the assay: LAMP study (Outcome Death): hazard ratio medication vs no medication, stratified by biomarker quintile. In kind it is in vivo, human. The settings on record: LAMP, Outcome Death.
Source text: as §1
(§3) FIGS. 14 to 21 illustrate the survival rate for patients suffering from myocardial infarction from the “Leicester Acute Myocardial Infarction Peptide Study” (“LAMP”). FIGS. 22 to 34 illustrate the rate of major cardiac events for patients suffering from acute myocardial infarction from “LAMP-Study”.
Acute myocardial infarction was subcategorized into ST-segment elevation myocardial infarction (STEMI) or non-ST-segment myocardial infarction (NSTEMI).
Blood samples were drawn on 1 occasion 3 to 5 days after the onset of chest pain. After 15 min bed rest, 20 ml blood was collected into tubes containing ethylendiaminetetraacetic acid (EDTA) and aprotinin. All plasma samples were stored at −70° C. until assayed in a blinded fashion in a single batch.
as §2

Assay [4] has the same test system. Nature of the assay: LAMP study (Outcome MACE): hazard ratio medication vs no medication, stratified by biomarker quintile. Type of assay: in vivo, human.
Source text: as §1, with “patients. By comparison of the HR between certain quantiles of patients with each other and with the HR of the overall population of patients, it is possible to identify those quantiles of patients who have an elevated risk and those who benefit from medication and thereby stratify subjects according to the present invention.” for “patients.”
as §3
The study involved 983 consecutive patients with acute myocardial infarction (AMI) admitted to the Coronary Care Unit of Leicester Royal Infirmary. […] Acute myocardial infarction was subcategorized into ST-segment elevation myocardial infarction (STEMI) or non-ST-segment myocardial infarction (NSTEMI).
Blood samples were drawn on 1 occasion 3 to 5 days after the onset of chest pain. After 15 min bed rest, 20 ml blood was collected into tubes containing ethylendiaminetetraacetic acid (EDTA) and aprotinin. All plasma samples were stored at −70° C. until assayed in a blinded fashion in a single batch. In a subgroup of 132 patients from the original 983-patient cohort, blood sampling was performed daily for 5 days from admission to discharge.
as §2

The test system of assay [5] is patients with severe congestive heart failure in NYHA class IV. The settings on record: mortality after 6 months; patients stratified by peptide concentrations below and above median; cited from earlier work.

“And” between values parts separate entries of the source, which are not always exact repeats. Identical values can stand only once. Where only a bound is given, the exact number is not on record here.

Regarding `CC(=O)CC(c1ccccc1)c1c(O)c2ccccc2oc1=O` (centres unmarked) [Warfarin], in assay [1], the “HR Medicament (overall patient group)” value was 1.6 and 1 and 1.3 and 0.8.

Regarding `COc1ccccc1OCCNCC(O)COc1cccc2[nH]c3ccccc3c12` (centres unmarked) [carvedilol], in assay [2], the “effect on mortality and heart failure” value is “reduced mortality and heart failure”.

`O=C(NCCO[N+](=O)[O-])c1cccnc1` [Nicorandil]: the “HR Medicament in Marker-Quantile 1” value in assay [3] (NT-proBNP 0.3-204 pg/mL) stood at 4.8; in assay [4] (CT-proET-1 4.6-56.6 pmol/L), 7.1. Also, the “HR Medicament in Marker-Quantile 2-4” value in assay [3] (NT-proBNP 204-3160 pg/mL) was less than 0.1; in assay [4] (CT-proET-1 56.6-118 pmol/L), 1.2. Besides, the “HR Medicament in Marker-Quantile 5” value in assay [3] (NT-proBNP 3160-11800 pg/mL) amounted to 0.5; in assay [4] (CT-proET-1 118-671 pmol/L), 0.7. The results for the “HR Medicament (overall patient group)” value in assay [3] (biomarker NT-proBNP) and in assay [4] (biomarker CT-proET-1) were 0.5 and 1.2, respectively.

Turning to `CCOC(=O)[C@H](CCc1ccccc1)N[C@@H](C)C(=O)N1CCC[C@H]1C(=O)O` [elanapril], the effect on mortality result in assay [5] is on record as “beneficial effect”.

These data come from patent US9229013B2, “Vasoactive hormone-based stratification of patients suffering from diseases related to endothelial function/dysfunction” (B.R.A.H.M.S GMBH, priority 2009, dated 2016).
